{"source": "patent US7767659B2", "about": "“Synthesis of naturally occurring ecteinascidins and related compounds” (Pharma Mar, S.A., priority 2002, dated 2010)", "key": {"A-549": {"test_system": "A-549", "experiment": "cells", "conditions": "Homo sapiens, A549, 48 h", "method_in_brief": "(§1)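 Colorimetric SRB read (490 nm) on triplicate wells after 48 h at 37 °C, 5% CO2. Dose range 10 to 10^−8 μg/ml; 5×10^3 cells/well pre-attached 18 h.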"}, "HT-29": {"test_system": "HT-29", "experiment": "cells", "conditions": "Homo sapiens, HT-29, 48 h", "method_in_brief": "as §1"}, "LoVo": {"test_system": "LoVo", "experiment": "cells", "conditions": "Homo sapiens, LoVo, 48 h", "method_in_brief": "as §1"}, "PANC-1": {"test_system": "PANC-1", "experiment": "Inhibition of cells growth by colorimetric assay (SRB)", "conditions": "Homo sapiens, PANC-1, 48 h", "method_in_brief": "as §1"}, "LoVo-Dox": {"test_system": "LoVo-Dox", "experiment": "Inhibition of cells growth by colorimetric assay (SRB)", "conditions": "Homo sapiens, 48 h", "method_in_brief": "as §1"}, "SK-MEL-28": {"test_system": "SK-MEL-28", "experiment": "Inhibition of cells growth by colorimetric assay (SRB)", "conditions": "Homo sapiens, SK-MEL-28, 48 h", "method_in_brief": "as §1"}, "IGROV-1": {"test_system": "IGROV-1", "experiment": "Inhibition of cells growth by colorimetric assay (SRB)", "conditions": "Homo sapiens, IGROV-1, 48 h", "method_in_brief": "as §1"}, "SK-OV-3": {"test_system": "SK-OV-3", "experiment": "Inhibition of cells growth by colorimetric assay (SRB)", "method_in_brief": "as §1"}, "HMEC1": {"test_system": "HMEC1", "experiment": "Inhibition of cells growth by colorimetric assay (SRB)", "conditions": "for GI50: Homo sapiens, HMEC-1, 48 h", "method_in_brief": "as §1"}, "LNCaP": {"test_system": "LNCaP", "experiment": "Inhibition of cells growth by colorimetric assay (SRB)", "conditions": "Homo sapiens, LNCaP, 48 h", "method_in_brief": "as §1"}, "SK-BR-3": {"test_system": "SK-BR-3", "experiment": "Inhibition of cells growth by colorimetric assay (SRB)", "conditions": "Homo sapiens, SK-BR-3, 48 h", "method_in_brief": "as §1"}, "K-562": {"test_system": "K-562", "experiment": "Inhibition of cells growth by colorimetric assay (SRB)", "conditions": "Homo sapiens, K562, 48 h", "method_in_brief": "as §1"}, "DU-145": {"test_system": "DU-145", "experiment": "Inhibition of cells growth by colorimetric assay (SRB)", "conditions": "Homo sapiens, DU-145, 48 h", "method_in_brief": "as §1"}, "IGROV-ET": {"test_system": "IGROV-ET", "experiment": "Inhibition of cells growth by colorimetric assay (SRB)", "conditions": "Homo sapiens, 48 h", "method_in_brief": "as §1"}, "[1]": {"experiment": "Inhibition of cells growth by colorimetric assay (SRB)", "conditions": "human", "method_in_brief": "as §1"}, "[2]": {"conditions": "H-MEC-1, SRB, 48 hours exposure"}}, "note": "Like-named read-outs stand apart in the source and are kept apart here."}
{"smiles": "COc1cc2c(cc1O)CCN[C@]21CS[C@@H]2c3c(OC(C)=O)c(C)c4c(c3[C@H](COC1=O)N1[C@@H]2[C@H]2c3c(cc(C)c(OC)c3O)C[C@@H]([C@@H]1O)N2C)OCO4", "note": "[Et-743, ecteinascidin 743, reference compound]", "values": [{"measurement": "GI50", "setting": "A-549; read-out: A549 GI50", "value": 0.00252, "unit": "µM"}, {"measurement": "CC50", "setting": "A-549; read-out: A549 LC50", "value": 0.0121, "unit": "µM"}, {"measurement": "IC (TGI)", "setting": "A-549; read-out: A549 TGI", "value": 0.00551, "unit": "µM"}, {"measurement": "GI50", "setting": "HT-29; read-out: HT29 GI50", "value": 0.00341, "unit": "µM"}, {"measurement": "CC50", "setting": "HT-29; read-out: HT29 LC50", "value": 13.1, "unit": "µM"}, {"measurement": "IC (TGI)", "setting": "HT-29; read-out: HT29 TGI", "value": 0.0111, "unit": "µM"}, {"measurement": "GI50", "setting": "LoVo; read-out: LOVO GI50", "value": 0.00156, "unit": "µM"}, {"measurement": "CC50", "setting": "LoVo; read-out: LOVO LC50", "value": 0.0114, "unit": "µM"}, {"measurement": "IC (TGI)", "setting": "LoVo; read-out: LOVO TGI", "value": 0.00423, "unit": "µM"}, {"measurement": "GI50", "setting": "PANC-1; read-out: PANC-1 GI50", "value": 0.00159, "unit": "µM"}, {"measurement": "CC50", "setting": "PANC-1; read-out: PANC-1 LC50", "value": 0.0399, "unit": "µM"}, {"measurement": "IC (TGI)", "setting": "PANC-1; read-out: PANC-1 TGI", "value": 0.00634, "unit": "µM"}, {"measurement": "GI50", "setting": "LoVo-Dox; read-out: LOVO-DOX GI50", "value": 0.0295, "unit": "µM"}, {"measurement": "IC (TGI)", "setting": "LoVo-Dox; read-out: LOVO-DOX TGI", "value": 0.11, "unit": "µM"}, {"measurement": "GI50", "setting": "SK-MEL-28; read-out: MEL-28 GI50", "value": 0.000742, "unit": "µM"}, {"measurement": "CC50", "setting": "SK-MEL-28; read-out: MEL-28 LC50", "value": 0.0112, "unit": "µM"}, {"measurement": "IC (TGI)", "setting": "SK-MEL-28; read-out: MEL-28 TGI", "value": 0.00306, "unit": "µM"}, {"measurement": "GI50", "setting": "IGROV-1; read-out: IGROV GI50", "value": 0.000579, "unit": "µM"}, {"measurement": "CC50", "setting": "IGROV-1; read-out: IGROV LC50", "value": 0.0103, "unit": "µM"}, {"measurement": "IC (TGI)", "setting": "IGROV-1; read-out: IGROV TGI", "value": 0.0026, "unit": "µM"}, {"measurement": "GI50", "setting": "SK-OV-3; Homo sapiens, SK-OV-3, 48 h, read-out: SK-OV3 GI50", "value": 0.00131, "unit": "µM"}, {"measurement": "SK-OV3 TGI", "setting": "SK-OV-3; SK-OV3, SRB, 48 hours exposure", "value": "1.30E−08", "unit": "Molar"}, {"measurement": "H-MEC-1 TGI", "setting": "HMEC1; [2]", "value": "6.88E−08", "unit": "Molar"}, {"measurement": "GI50", "setting": "HMEC1; read-out: H-MEC-1 GI50", "value": 0.00903, "unit": "µM"}, {"measurement": "GI50", "setting": "LNCaP; read-out: LNCAP GI50", "value": 0.00023, "unit": "µM"}, {"measurement": "CC50", "setting": "LNCaP; read-out: LNCAP LC50", "value": 0.00122, "unit": "µM"}, {"measurement": "IC (TGI)", "setting": "LNCaP; read-out: LNCAP TGI", "value": 0.000529, "unit": "µM"}, {"measurement": "GI50", "setting": "SK-BR-3; read-out: SK-BR3 GI50", "value": 0.000479, "unit": "µM"}, {"measurement": "CC50", "setting": "SK-BR-3; read-out: SK-BR3 LC50", "value": 0.00857, "unit": "µM"}, {"measurement": "IC (TGI)", "setting": "SK-BR-3; read-out: SK-BR3 TGI", "value": 0.00172, "unit": "µM"}, {"measurement": "GI50", "setting": "K-562; read-out: K562 GI50", "value": 0.000347, "unit": "µM"}, {"measurement": "CC50", "setting": "K-562; read-out: K562 LC50", "value": 0.00106, "unit": "µM"}, {"measurement": "IC (TGI)", "setting": "K-562; read-out: K562 TGI", "value": 0.000605, "unit": "µM"}, {"measurement": "GI50", "setting": "DU-145; read-out: DU145 GI50", "value": 0.000618, "unit": "µM"}, {"measurement": "CC50", "setting": "DU-145; read-out: DU145 LC50", "value": 4.33, "unit": "µM"}, {"measurement": "IC (TGI)", "setting": "DU-145; read-out: DU145 TGI", "value": 0.00129, "unit": "µM"}, {"measurement": "GI50", "setting": "IGROV-ET; read-out: IGROV-ET GI50", "value": 0.00429, "unit": "µM"}, {"measurement": "CC50", "setting": "IGROV-ET; read-out: IGROV-ET LC50", "value": 0.0186, "unit": "µM"}, {"measurement": "IC (TGI)", "setting": "IGROV-ET; read-out: IGROV-ET TGI", "value": 0.00786, "unit": "µM"}]}
{"smiles": "C=CCN1[C@@H]2c3c(cc(C)c(OC)c3OCOCCOC)C[C@H]1[C@H](C#N)N1C2CC2(O)C(=O)C(C)=C3OCOC3=C2[C@@H]1COC(=O)[C@H](CSCC1c2ccccc2-c2ccccc21)NC(=O)OC(C)(C)C", "note": "(stereo partly drawn) [compound 10]", "values": [{"measurement": "GI50", "setting": "A-549; read-out: GI50 A549", "value": 1010, "unit": "µM"}, {"measurement": "CC50", "setting": "A-549; read-out: LC50 A549", "value": 1010, "unit": "µM"}, {"measurement": "IC (TGI)", "setting": "A-549; read-out: TGI A549", "value": 1010, "unit": "µM"}, {"measurement": "GI50", "setting": "HT-29; read-out: GI50 HT29", "value": 1010, "unit": "µM"}, {"measurement": "CC50", "setting": "HT-29; read-out: LC50 HT29", "value": 1010, "unit": "µM"}, {"measurement": "IC (TGI)", "setting": "HT-29; read-out: TGI HT29", "value": 1010, "unit": "µM"}, {"measurement": "CC50 at 48 h", "setting": "[1]", "value": 7.63, "unit": "µM"}, {"measurement": "TGI H-MEC-1", "setting": "HMEC1; [2]", "value": "4.06E−06", "unit": "Molar"}, {"measurement": "GI50", "setting": "HMEC1; read-out: GI50 H-MEC-1", "value": 2.15, "unit": "µM"}]}
{"smiles": "C=CCN1[C@@H]2c3c(cc(C)c(OC)c3O)C[C@H]1[C@H](C#N)N1C2[C@@H]2SCC(=O)C(=O)OC[C@H]1c1c3c(c(C)c(OC(C)=O)c12)OCO3", "note": "(stereo partly drawn) [compound 13]", "values": [{"measurement": "GI50", "setting": "A-549; read-out: GI50 A549", "value": 3.94, "unit": "µM"}, {"measurement": "CC50", "setting": "A-549; read-out: LC50 A549", "value": 13.7, "unit": "µM"}, {"measurement": "IC (TGI)", "setting": "A-549; read-out: TGI A549", "value": 7.36, "unit": "µM"}, {"measurement": "GI50", "setting": "HT-29; read-out: GI50 HT29", "value": 6.02, "unit": "µM"}, {"measurement": "CC50", "setting": "HT-29; read-out: LC50 HT29", "value": 15.4, "unit": "µM"}, {"measurement": "IC (TGI)", "setting": "HT-29; read-out: TGI HT29", "value": 15.4, "unit": "µM"}, {"measurement": "CC50 at 48 h", "setting": "[1]", "value": 15.4, "unit": "µM"}, {"measurement": "TGI H-MEC-1", "setting": "HMEC1; [2]", "value": "1.54E−05", "unit": "Molar"}, {"measurement": "GI50", "setting": "HMEC1; read-out: GI50 H-MEC-1", "value": 4.74, "unit": "µM"}]}
{"smiles": "C=CCN1[C@@H]2c3c(cc(C)c(OC)c3O)C[C@H]1[C@H](C#N)N1C2[C@@H]2SC[C@]3(NCCc4cc(O)c(OC)cc43)C(=O)OC[C@H]1c1c3c(c(C)c(OC(C)=O)c12)OCO3", "note": "(stereo partly drawn) [compound 14]", "values": [{"measurement": "GI50", "setting": "A-549; read-out: GI50 A549", "value": 2.23, "unit": "µM"}, {"measurement": "CC50", "setting": "A-549; read-out: LC50 A549", "value": 11.7, "unit": "µM"}, {"measurement": "IC (TGI)", "setting": "A-549; read-out: TGI A549", "value": 5.11, "unit": "µM"}, {"measurement": "GI50", "setting": "HT-29; read-out: GI50 HT29", "value": 1.77, "unit": "µM"}, {"measurement": "CC50", "setting": "HT-29; read-out: LC50 HT29", "value": 12.5, "unit": "µM"}, {"measurement": "IC (TGI)", "setting": "HT-29; read-out: TGI HT29", "value": 6.39, "unit": "µM"}, {"measurement": "CC50 at 48 h", "setting": "[1]", "value": 12.5, "unit": "µM"}, {"measurement": "TGI H-MEC-1", "setting": "HMEC1; [2]", "value": "1.25E−05", "unit": "Molar"}, {"measurement": "GI50", "setting": "HMEC1; read-out: GI50 H-MEC-1", "value": 3, "unit": "µM"}]}
